Laboratory results from article PMC6272931, “Acacetin Protects Mice from Staphylococcus aureus Bloodstream Infection by Inhibiting the Activity of Sortase A” (Molecules, 2016).

Biological target: T1, Sortase A (SrtA) (Staphylococcus aureus, UniProt Q2FV99)
T1 construct: SrtAΔN59
Assay: FRET peptide cleavage assay (Dabcyl-QALPETGEE-Edans) with purified SrtAΔN59, […] CaCl2 in the buffer
Format: biochemical

T1 sequence (Q2FV99 60-206): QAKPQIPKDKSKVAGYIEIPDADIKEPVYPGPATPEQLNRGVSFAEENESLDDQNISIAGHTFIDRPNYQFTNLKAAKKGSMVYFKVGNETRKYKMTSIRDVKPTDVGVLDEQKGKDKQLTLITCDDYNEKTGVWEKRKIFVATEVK

COc1ccc(-c2cc(=O)c3c(O)cc(O)cc3o2)cc1 [acacetin, 5,7-dihydroxy-2-(4-methoxyphenyl)chromen-4-one] gave an IC50 of 128 µM.
